Test results from the supplement of paper PMC10307832.

Compound: CN1CCN(CC1)C2=CC(=C(C=C2)NC3=NC(=C(S3)C(=O)C4=C(C=CC=C4Cl)Cl)N)OC [XMD14-99] + COc1cccc2cc(-c3nc([C@H]4CC[C@H](C(=O)O)CC4)n4ncnc(N)c34)[nH]c12 [OSI-027] (partner 0.5 µM)
Test: relative viability (nuclei count vs DMSO), 5 days (fraction); higher = more cells survive
Details: first compound 0.08 µM
Outline: (§1)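 Values are medians from duplicate plates. Each reflects relative viability, defined as the nuclei count of treated wells over that of vehicle wells. Lung cancer cell lines in 1536-well plates were pin-tool dosed one day after seeding with one drug alone or with a fixed anchor-drug dose plus five library-drug doses (not always all listed) in √10 steps, then fixed, stained and imaged at 4× after 5 days.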

Cell Line | relative viability
NCI-H522 | 0.742
NCI-H1623 | 0.434
NCI-H838 | 0.481
NCI-H1650 | 0.705
NCI-H2009 | 0.611
NCI-H1993 | 0.575
PC-14 | 0.809
LCLC-103H | 0.409
NCI-H596 | 0.675
NCI-H2228 | 0.687
EMC-BAC-2 | 0.362
NCI-H2087 | 0.524
HCC-366 | 0.855
NCI-H1666 | 0.881
NCI-H647 | 0.621
LK-2 | 0.19
NCI-H2126 | 0.666
NCI-H2342 | 0.594
SK-MES-1 | 0.589

Cell Line | relative viability
H3255 | 0.548
COR-L23 | 0.796
COR-L 105 | 0.701
LOU-NH91 | 0.744
ChaGo-K-1 | 0.554
NCI-H2170 | 0.709
NCI-H3122 | 0.815
HOP-62 | 0.873
HCC-44 | 0.46
SW 900 | 0.532
LU99A | 0.302
BEN | 0.29
HARA | 0.46
NCI-H1648 | 0.268
HCC-78 | 0.389
NCI-H441 | 0.61
LCLC-97TM1 | 0.412
NCI-H2023 | 0.42
NCI-H1563 | 0.753

Same assay, conditions: first compound 0.8 µM

Cell Line | relative viability
NCI-H522 | 0.742
NCI-H1623 | 0.43
NCI-H838 | 0.403
NCI-H1650 | 0.7
NCI-H2009 | 0.607
NCI-H1993 | 0.555
PC-14 | 0.806
LCLC-103H | 0.417
NCI-H596 | 0.901
NCI-H2228 | 0.583
EMC-BAC-2 | 0.384
NCI-H2087 | 0.487
HCC-366 | 1.05
NCI-H1666 | 0.731
NCI-H647 | 0.71
LK-2 | 0.182
NCI-H2126 | 0.66
NCI-H2342 | 0.674
SK-MES-1 | 0.506

Cell Line | relative viability
H3255 | 0.57
COR-L23 | 0.724
COR-L 105 | 0.646
LOU-NH91 | 0.7
ChaGo-K-1 | 0.658
NCI-H2170 | 0.772
NCI-H3122 | 0.811
HOP-62 | 0.877
HCC-44 | 0.493
SW 900 | 0.727
LU99A | 0.308
BEN | 0.295
HARA | 0.426
NCI-H1648 | 0.25
HCC-78 | 0.339
NCI-H441 | 0.568
LCLC-97TM1 | 0.452
NCI-H2023 | 0.427
NCI-H1563 | 0.766

Same assay, conditions: first compound 2.53 µM

Cell Line | relative viability
NCI-H522 | 0.683
NCI-H1623 | 0.392
NCI-H838 | 0.356
NCI-H1650 | 0.49
NCI-H2009 | 0.508
NCI-H1993 | 0.53
PC-14 | 0.644
LCLC-103H | 0.465
NCI-H596 | 0.609
NCI-H2228 | 0.505
EMC-BAC-2 | 0.313
NCI-H2087 | 0.45
HCC-366 | 0.82
NCI-H1666 | 0.799
NCI-H647 | 0.746
LK-2 | 0.162
NCI-H2126 | 0.669
NCI-H2342 | 0.752
SK-MES-1 | 0.54

Cell Line | relative viability
H3255 | 0.535
COR-L23 | 0.561
COR-L 105 | 0.647
LOU-NH91 | 0.73
ChaGo-K-1 | 0.612
NCI-H2170 | 0.65
NCI-H3122 | 0.623
HOP-62 | 0.772
HCC-44 | 0.421
SW 900 | 0.548
LU99A | 0.297
BEN | 0.312
HARA | 0.321
NCI-H1648 | 0.231
HCC-78 | 0.377
NCI-H441 | 0.665
LCLC-97TM1 | 0.555
NCI-H2023 | 0.299
NCI-H1563 | 0.733

Same assay, conditions: first compound 8 µM

Cell Line | relative viability
NCI-H522 | 0.72
NCI-H1623 | 0.396
NCI-H838 | 0.298
NCI-H1650 | 0.395
NCI-H2009 | 0.273
NCI-H1993 | 0.53
PC-14 | 0.29
LCLC-103H | 0.406
NCI-H596 | 0.643
NCI-H2228 | 0.199
EMC-BAC-2 | 0.292
NCI-H2087 | 0.299
HCC-366 | 0.608
NCI-H1666 | 0.651
NCI-H647 | 0.605
LK-2 | 0.179
NCI-H2126 | 0.432
NCI-H2342 | 0.548
SK-MES-1 | 0.291

Cell Line | relative viability
H3255 | 0.487
COR-L23 | 0.406
COR-L 105 | 0.409
LOU-NH91 | 0.63
ChaGo-K-1 | 0.472
NCI-H2170 | 0.621
NCI-H3122 | 0.163
HOP-62 | 0.662
HCC-44 | 0.469
SW 900 | 0.366
LU99A | 0.25
BEN | 0.264
HARA | 0.182
NCI-H1648 | 0.227
HCC-78 | 0.319
NCI-H441 | 0.427
LCLC-97TM1 | 0.442
NCI-H2023 | 0.209
NCI-H1563 | 0.641

Compound: N[C@@H]1CCCN(c2c(/C=C3\SC(=O)NC3=O)cccc2-c2ccccc2)C1 [AZD1208] + N=C(N)NC(=N)NCCc1ccccc1 [Phenformin] (partner 250 µM)
Test: as above
Details: first compound 0.08 µM
Outline: as §1

Cell Line | relative viability
NCI-H522 | 0.614
NCI-H1623 | 0.573
NCI-H838 | 0.524
NCI-H1650 | 0.416
NCI-H2009 | 0.481
NCI-H1993 | 0.538
